# Test results reported in PMC7254505 (ACS Omega, 2020).
# Columns and labels:
# [1] = Aqueous solubility; assay type: physicochemical
# [2] = Partition coefficient; assay type: physicochemical
# [3] = Plasma protein binding; assay type: in vitro ADME
# [4] = target: T1, CYP1A2 (Homo sapiens, UniProt P05177); assay: Cytochrome P450 inhibition, CYP1A2; assay type: in vitro ADME
# T1 sequence (P05177 1-516): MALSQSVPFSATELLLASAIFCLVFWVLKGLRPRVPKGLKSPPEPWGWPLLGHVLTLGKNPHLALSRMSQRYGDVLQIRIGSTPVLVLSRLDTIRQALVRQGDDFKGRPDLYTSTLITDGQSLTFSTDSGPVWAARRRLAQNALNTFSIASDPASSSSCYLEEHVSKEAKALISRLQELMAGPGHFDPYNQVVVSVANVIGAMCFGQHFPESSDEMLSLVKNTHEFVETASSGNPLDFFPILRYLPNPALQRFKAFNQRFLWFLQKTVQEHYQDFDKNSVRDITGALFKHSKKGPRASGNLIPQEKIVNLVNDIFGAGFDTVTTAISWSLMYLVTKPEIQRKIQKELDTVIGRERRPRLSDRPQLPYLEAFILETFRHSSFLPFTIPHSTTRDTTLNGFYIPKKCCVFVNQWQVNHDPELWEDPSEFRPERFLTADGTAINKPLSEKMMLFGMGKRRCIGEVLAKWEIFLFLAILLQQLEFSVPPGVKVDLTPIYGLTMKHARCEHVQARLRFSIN
# [5] = target: CYP2C9 (Homo sapiens, UniProt P11712); assay: Cytochrome P450 inhibition, CYP2C9; assay type: in vitro ADME
# Chain of CYP2C9 (P11712 whole entry): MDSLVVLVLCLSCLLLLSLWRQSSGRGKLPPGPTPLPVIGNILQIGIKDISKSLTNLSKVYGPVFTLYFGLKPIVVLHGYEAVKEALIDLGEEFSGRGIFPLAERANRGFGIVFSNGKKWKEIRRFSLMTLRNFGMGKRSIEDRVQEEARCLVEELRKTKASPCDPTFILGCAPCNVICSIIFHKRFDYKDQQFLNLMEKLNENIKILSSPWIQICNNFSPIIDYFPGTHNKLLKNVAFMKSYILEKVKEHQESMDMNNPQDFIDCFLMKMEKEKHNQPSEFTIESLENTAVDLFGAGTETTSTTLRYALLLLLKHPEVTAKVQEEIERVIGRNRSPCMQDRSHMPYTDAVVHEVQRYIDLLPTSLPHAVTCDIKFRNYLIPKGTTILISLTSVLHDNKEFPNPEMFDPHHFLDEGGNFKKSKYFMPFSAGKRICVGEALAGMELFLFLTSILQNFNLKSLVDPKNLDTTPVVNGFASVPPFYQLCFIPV
# [6] = target: CYP2C19 (Homo sapiens, UniProt P33261); assay: Cytochrome P450 inhibition, CYP2C19; assay type: in vitro ADME
# Chain of CYP2C19 (P33261 whole entry): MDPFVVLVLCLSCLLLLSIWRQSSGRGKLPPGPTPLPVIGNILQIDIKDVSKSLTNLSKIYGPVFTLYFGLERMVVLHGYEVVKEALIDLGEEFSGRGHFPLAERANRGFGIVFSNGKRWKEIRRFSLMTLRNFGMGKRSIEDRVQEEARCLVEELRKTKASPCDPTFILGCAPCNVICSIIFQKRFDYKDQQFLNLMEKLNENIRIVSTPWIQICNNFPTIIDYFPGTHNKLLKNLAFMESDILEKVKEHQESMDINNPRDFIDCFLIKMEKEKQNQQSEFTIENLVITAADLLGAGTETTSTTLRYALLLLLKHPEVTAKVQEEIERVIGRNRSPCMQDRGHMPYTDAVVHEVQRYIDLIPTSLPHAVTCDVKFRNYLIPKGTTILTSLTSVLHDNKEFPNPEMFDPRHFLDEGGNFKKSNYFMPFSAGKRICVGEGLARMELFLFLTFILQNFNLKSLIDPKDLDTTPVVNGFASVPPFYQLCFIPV
# [7] = target: CYP2D6 (Homo sapiens, UniProt P10635); assay: Cytochrome P450 inhibition, CYP2D6; assay type: in vitro ADME
# Chain of CYP2D6 (P10635 whole entry): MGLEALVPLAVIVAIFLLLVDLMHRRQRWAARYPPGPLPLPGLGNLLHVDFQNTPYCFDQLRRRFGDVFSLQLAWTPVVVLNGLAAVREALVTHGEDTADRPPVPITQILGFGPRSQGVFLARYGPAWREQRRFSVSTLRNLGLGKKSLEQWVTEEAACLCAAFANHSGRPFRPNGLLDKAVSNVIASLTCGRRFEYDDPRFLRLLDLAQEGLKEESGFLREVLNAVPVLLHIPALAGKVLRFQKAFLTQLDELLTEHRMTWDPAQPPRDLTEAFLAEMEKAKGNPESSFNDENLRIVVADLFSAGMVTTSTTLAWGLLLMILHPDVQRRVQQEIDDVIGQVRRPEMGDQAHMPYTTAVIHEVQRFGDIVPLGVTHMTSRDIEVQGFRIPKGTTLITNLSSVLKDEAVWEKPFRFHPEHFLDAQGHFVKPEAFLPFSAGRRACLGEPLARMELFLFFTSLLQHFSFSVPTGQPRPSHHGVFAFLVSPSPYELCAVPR
# [8] = target: CYP3A4 (Homo sapiens, UniProt P08684); assay: Cytochrome P450 inhibition, CYP3A4; assay type: in vitro ADME
# Chain of CYP3A4 (P08684 whole entry): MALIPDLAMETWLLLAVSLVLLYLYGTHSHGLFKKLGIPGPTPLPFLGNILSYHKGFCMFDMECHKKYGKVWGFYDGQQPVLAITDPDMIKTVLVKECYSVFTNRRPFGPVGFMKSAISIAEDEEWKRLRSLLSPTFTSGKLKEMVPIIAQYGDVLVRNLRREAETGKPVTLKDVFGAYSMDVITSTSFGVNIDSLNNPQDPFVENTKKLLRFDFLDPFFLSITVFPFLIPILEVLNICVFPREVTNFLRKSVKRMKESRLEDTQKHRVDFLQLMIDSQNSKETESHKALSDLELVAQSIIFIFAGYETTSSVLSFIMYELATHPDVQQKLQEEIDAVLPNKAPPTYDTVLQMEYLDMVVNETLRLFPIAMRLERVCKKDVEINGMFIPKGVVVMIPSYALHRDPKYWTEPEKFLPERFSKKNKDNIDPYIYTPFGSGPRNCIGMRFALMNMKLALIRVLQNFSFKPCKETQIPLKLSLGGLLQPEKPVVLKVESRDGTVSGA
# [9] = test system: HepG2 cells; assay: In vitro toxicity, HepG2 cell viability; assay type: cell-based
# [10] = cited from earlier work
# [11] = cited from earlier work; remark: listed apart in the source
# [12] = test system: ALK2 over ALK5; conditions: cited from earlier work
# [13] = target: T2, ALK2 (R206H) (Homo sapiens, UniProt Q04771, R206H); assay: In vitro enzyme assay; assay type: biochemical
# T2 sequence (Q04771 21-509 R206H): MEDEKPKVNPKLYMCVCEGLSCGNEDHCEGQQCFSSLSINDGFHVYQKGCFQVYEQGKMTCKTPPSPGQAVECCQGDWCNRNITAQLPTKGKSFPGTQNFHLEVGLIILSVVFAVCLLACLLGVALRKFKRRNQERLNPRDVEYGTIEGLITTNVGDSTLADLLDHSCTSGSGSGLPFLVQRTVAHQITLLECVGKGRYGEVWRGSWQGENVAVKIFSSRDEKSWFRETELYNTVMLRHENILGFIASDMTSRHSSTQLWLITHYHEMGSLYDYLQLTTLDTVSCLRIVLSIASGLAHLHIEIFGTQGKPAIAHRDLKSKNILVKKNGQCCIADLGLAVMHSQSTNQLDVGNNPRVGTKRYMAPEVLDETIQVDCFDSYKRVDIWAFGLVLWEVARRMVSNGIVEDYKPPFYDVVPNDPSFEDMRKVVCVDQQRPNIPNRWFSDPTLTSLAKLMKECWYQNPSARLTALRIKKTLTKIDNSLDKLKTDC
compound,measurement,setting,value
c1ccc2c(-c3cnn4cc(-c5ccc(N6CCNCC6)cc5)cnc34)ccnc2c1 [LDN-193189],aqueous solubility at pH 7.4,[1],10.6 μg/mL
same,"partition coefficient (log D, n-octanol/PBS, pH 7.4)",[2],2.26
same,PPB human (%) at 10 μM,[3],97.8%
same,CYP1A2 % inh. at 10 μM,[4],28%
same,CYP2C9 % inh. at 10 μM,[5],30%
same,CYP2C19 % inh. at 10 μM,[6],34%
same,CYP2D6 % inh. at 10 μM,[7],30%
same,CYP3A4 % inh. at 10 μM,[8],82%
same,in vitro toxicity HepG2 cell (% viability at 30 μM),[9],77%
same,solubility in aqueous solutions (in words),[10],poorly soluble
same,binding to serum proteins (in words),[11],highly bound
COc1cc(-c2cc(-c3ccc(N4CCNCC4)cc3)cnc2C)cc(OC)c1OC [LDN-214117],selectivity for ALK2 over ALK5,[12],more than 100 fold
c1cc(-c2cnn3cc(-c4ccc(N5CCNCC5)cc4)cnc23)c2cccnc2c1 [LDN-212854],solubility in aqueous solutions (in words),[10],poorly soluble
same,binding to serum proteins (in words),[11],highly bound
"c1cncc(-c2n[nH]cc2-c2ccnc(Nc3ccc(N4CCNCC4)cc3)n2)c1 [Compound 1, N-[4-(Piperazin-1-yl)phenyl]-4-(3-pyridin-3-yl-1H-pyrazol-4-yl)pyrimidin-2-amine]",IC50,[13],0.0479 µM
